Experimental data reported in paper PMC7921063, “The Effects of Genetic Mutations and Drugs on the Activity of the Thiamine Transporter, SLC19A2” (The AAPS Journal, 2021).
Like-named read-outs stand apart in the source and are kept apart here.

Tests used:
[1] = target: T1, wild-type SLC19A2 (Homo sapiens, UniProt O60779); experiment: Thiamine transport by wild-type SLC19A2 in transiently transfected HEK293 cells with inhibitor; format: cell-based; settings: 200 μM inhibitor
T1 construct: host or cells: HEK293, transiently transfected
T1 sequence (O60779 1-497): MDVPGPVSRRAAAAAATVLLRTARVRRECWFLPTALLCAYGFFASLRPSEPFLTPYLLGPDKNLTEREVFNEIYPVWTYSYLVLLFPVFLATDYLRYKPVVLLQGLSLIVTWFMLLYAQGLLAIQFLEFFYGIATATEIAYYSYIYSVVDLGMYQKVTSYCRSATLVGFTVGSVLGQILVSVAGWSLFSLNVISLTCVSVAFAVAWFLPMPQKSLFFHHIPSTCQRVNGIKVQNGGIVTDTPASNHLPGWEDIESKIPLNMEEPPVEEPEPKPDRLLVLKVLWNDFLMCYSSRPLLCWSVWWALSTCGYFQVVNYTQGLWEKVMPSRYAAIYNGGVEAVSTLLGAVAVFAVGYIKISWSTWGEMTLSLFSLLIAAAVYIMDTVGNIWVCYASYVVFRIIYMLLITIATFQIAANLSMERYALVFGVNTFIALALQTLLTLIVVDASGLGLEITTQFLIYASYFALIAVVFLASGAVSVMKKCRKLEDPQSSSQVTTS
Procedure: (§1) Plasmids encoding wild-type SLC19A2 and three TRMA-associated variants were generated by Genscript Inc. (Piscataway, USA). Methods for generation of stably overexpressing SLC19A2 cell lines and uptake studies have been previously described ([11], [12]). Inhibition and kinetic studies were performed in SLC19A2-overexpressing stable HEK293 cells transiently transfected with an additional 500 ng of SLC19A2 wild-type plasmid.
Fig. 2 Function and expression of TRMA-associated SLC19A2 variants, and the effects of two prescription drugs on SLC19A2-mediated thiamine uptake. […] Figures representative of 3 separate experiments (a). Membrane localization of GFP-tagged SLC19A2 variants. To determine TRMA variant membrane expression, constructs encoding SLC19A2 wild-type and TRMA variants were GFP-tagged and transfected in HEK293 cells. Nuclei were stained with Hoechst 33342 dye (blue) and cells were visualized with confocal microscopy (b)

[2] = target: T2, SLC19A2 (Homo sapiens, UniProt O60779); experiment: SLC19A2 inhibitor screen: [3H]-thiamine uptake in SLC19A2-overexpressing HEK293 cells; format: cell-based; design: host or cells: HEK293, stably overexpressing SLC19A2 and transiently transfected with a further 500 ng wild-type plasmid; settings: HEK293, 10 min; for remaining activity at 1000 µM: drug 1 mM, [3H]-thiamine 25 nM, 10 min, HEK293 cells expressing SLC19A2, relative to uptake without inhibitor, read-out: Average % SLC19A2 thiamine uptake; for inhibition at 1000 µM: at 1 mM, read-out: reduction in thiamine transport (designated SLC19A2 inhibitor)
T2 sequence (O60779 1-497): T1 sequence (O60779 1-497)
Procedure: as §1
Prescription drugs associated with MA ([2]) in addition to others belonging to listed drug classes (e.g., proton-pump inhibitors; 63 compounds total) were screened in triplicate at 1 mM to evaluate inhibitory activity against SLC19A2. […] Each plate contained control wells exposed for 10 min (within linear range, Supplemental Figure 1) to [^3H]-thiamine (positive control), [^3H]-thiamine plus 1 mM of amprolium (negative control), and [^3H]-thiamine plus 1 mM of screened drug (3 replicates per drug). Methods have been previously described ([11]). SLC19A2 inhibitors were defined as compounds that decreased SLC19A2-mediated thiamine uptake by 50% or more at 1 mM. For compounds that met this definition, inhibition assays were conducted and IC50 values were calculated by nonlinear fitting using GraphPad Prism 7 (La Jolla, CA) ([11]).
Fig. 3 Common mechanisms of drug-induced megaloblastic anemia and SLC19A2 inhibitor drug screen workflow. A list of drugs associated with inducing megaloblastic anemia through various mechanisms was compiled (a). Each drug was dissolved to a final concentration of 1 mM in buffer containing radiolabeled [^3H] thiamine and exposed to HEK293 cells expressing SLC19A2 wild-type transporter for 10 min.

[3] = target: T2, SLC19A2; experiment: IC50 assays for inhibition of SLC19A2-mediated thiamine uptake; format: cell-based; design: host or cells: HEK293, stably overexpressing SLC19A2 and transiently transfected with a further 500 ng wild-type plasmid; settings: inhibitor 0 to 1 mM, HEK293
Procedure: as §1
Prescription drugs associated with MA ([2]) in addition to others belonging to listed drug classes (e.g., proton-pump inhibitors; 63 compounds total) were screened in triplicate at 1 mM to evaluate inhibitory activity against SLC19A2. The screen was performed using [^3H]-thiamine (25 nM). Each plate contained control wells exposed for 10 min (within linear range, Supplemental Figure 1) to [^3H]-thiamine (positive control), [^3H]-thiamine plus 1 mM of amprolium (negative control), and [^3H]-thiamine plus 1 mM of screened drug (3 replicates per drug). Methods have been previously described ([11]). SLC19A2 inhibitors were defined as compounds that decreased SLC19A2-mediated thiamine uptake by 50% or more at 1 mM. For compounds that met this definition, inhibition assays were conducted and IC50 values were calculated by nonlinear fitting using GraphPad Prism 7 (La Jolla, CA) ([11]).
Fig. 4 Drug screen and potency studies against SLC19A2-mediated thiamine uptake. In the screen, SLC19A2 inhibitors were defined as compounds that inhibit at least 50% of thiamine uptake compared to the positive control. The positive control was thiamine uptake in the absence of inhibitor. Out of the 63 drugs screened, ten reached that threshold. Of the ten drugs, three (fedratinib, amprolium, and trimethoprim) have IC50 values published in literature (a). […] Figures representative of 3 independent experiments except for pantoprazole

[4] = design: method as in Reference column of Table I (PMIDs, package inserts); settings: maximum plasma concentration, human; ref Table I (PMIDs, package inserts); cited from earlier work
[5] = fraction unbound in plasma, human; ref Table I (PMIDs, package inserts); cited from earlier work
[6] = target: human TPK1 (Homo sapiens, UniProt Q9H3S4); experiment: TPK1 enzyme assay (AMP-Glo luminescence), substrate test; format: biochemical; settings: 1 mM compound, 15 μg human TPK, 500 μM ATP, 30 min, 37 °C
Sequence of human TPK1 (Q9H3S4 whole entry): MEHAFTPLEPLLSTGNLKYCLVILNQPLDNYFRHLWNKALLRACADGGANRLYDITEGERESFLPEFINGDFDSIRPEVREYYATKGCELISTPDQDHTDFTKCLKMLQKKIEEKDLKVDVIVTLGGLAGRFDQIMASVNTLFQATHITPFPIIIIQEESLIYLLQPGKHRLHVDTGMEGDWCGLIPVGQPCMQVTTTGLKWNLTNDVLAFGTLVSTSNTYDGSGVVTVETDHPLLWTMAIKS
Procedure: Methods detailing thiamine pyrophosphokinase 1 (TPK1) enzyme assay development and execution are listed in Supplemental Figure 2 legend.
To determine if the top compounds in the SLC19A2 inhibitor screen (i.e., erythromycin, omeprazole) were substrates of human TPK1, we measured the level of adenosine monophosphate (AMP) generated in a TPK1 enzyme reaction using AMP-Glo™ Assay (Promega).
Luminescence was measured as a proxy for AMP production in human TPK1 reactions exposed to the following compounds: omeprazole 1mM (OME), erythromycin 1mM (ERY), thiamine 1mM (positive control or PC), and no substrate (negative control or NC). Reactions were comprised of 0.5 mL enzyme reaction mixture containing 100 μM MgCl2, 500 μM ATP, pH 7.4, 15 μg of human TPK and 1 mM of tested substrate incubated for 30 min at 37 °C. A negative control reaction was also prepared without added enzyme. Luminescence was measured with a GloMax luminometer (Promega). […] For omeprazole, the signal was not statistically different from the negative control (student’s t-test, p-value = 0.72). Figure representative of 3 independent experiments.

[7] = target: T2, SLC19A2; experiment: Predicted risk of SLC19A2-mediated clinical drug-drug interaction (FDA criteria); design: host or cells: HEK293, stably overexpressing SLC19A2 and transiently transfected with a further 500 ng wild-type plasmid; settings: (fu*Cmax)/IC50 > 0.1
From the text: Clinical pharmacokinetic data from human studies ([13]–[18]) and drug monograph databases (e.g., Micromedex, FDA) were used to obtain Cmax (maximum plasma concentration) and fu (fraction of drug unbound in the plasma).

[8] = target: T2, SLC19A2; settings: IC50 published in literature, ref PMID: 27803021; cited from earlier work

For `CCCc1ncc(C[n+]2ccccc2C)c(N)n1` [Amprolium], the “wild-type SLC19A2 thiamine transport activity” value [1] was “abolished”, the remaining activity at 1000 µM [2] was 29.1% and the inhibition at 1000 µM [2] was at least 50%.

In the case of `N=C(N)NC(=O)c1nc(Cl)c(N)nc1N` [Amiloride], the IC50 [3] is listed as 69 µM, the Cmax [4] is listed as 40 nM and the fu [5] is listed as 0.77. The remaining activity at 1000 µM [2] was 44.8% and the inhibition at 1000 µM [2] was at least 50%.

With `CC[C@H]1OC(=O)[C@H](C)[C@@H](O[C@H]2C[C@@](C)(OC)[C@@H](O)[C@H](C)O2)[C@H](C)[C@@H](O[C@@H]2O[C@H](C)C[C@H](N(C)C)[C@H]2O)[C@](C)(O)C[C@@H](C)C(=O)[C@H](C)[C@@H](O)[C@]1(C)O` [Erythromycin] the “Luminescent signal (AMP production) in TPK1 reaction versus negative control” value [6] was “significantly higher than the negative control signal”, the “FDA criteria for clinically relevant transporter inhibition, unbound Cmax/IC50” value [7] was “met the FDA’s criteria for clinically relevant transporter inhibition” and the IC50 [3] was 20 µM. For the same molecule, the Cmax [4] was 2300 to 9600 nM, the fu [5] was 0.1-0.3 and the remaining activity at 1000 µM [2] was 29.8%. It also gave an inhibition at 1000 µM [2] of at least 50%.

For `COc1ccnc(C[S+]([O-])c2nc3ccc(OC(F)F)cc3[nH]2)c1OC` (stereo not drawn) [Pantoprazole], the IC50 [3] is listed as 429 µM, the Cmax [4] is listed as 6500 nM and the fu [5] is listed as 0.02 (label). For the same molecule, the remaining activity at 1000 µM [2] was 46.5% and the inhibition at 1000 µM [2] was at least 50%.

For `CCN(CC)CCCC(C)Nc1ccnc2cc(Cl)ccc12` (stereo not drawn) [Chloroquine], the IC50 [3] is given as 301 µM, the Cmax [4] is given as 3.4 nM and the fu [5] is given as 0.36-0.39.

For `COc1cc(Cc2cnc(N)nc2N)cc(OC)c1OC` [Trimethoprim], the Cmax [4] is given as 3440 nM, the “wild-type SLC19A2 thiamine transport activity” value [1] is given as “abolished” and the remaining activity at 1000 µM [2] is given as 31.7%. The inhibition at 1000 µM [2] was at least 50% and the IC50 [8] was 6.84 µM.

For `COc1ccc2[nH]c([S+]([O-])Cc3ncc(C)c(OC)c3C)nc2c1` (stereo not drawn) [Omeprazole], the “Luminescent signal (AMP production) in TPK1 reaction versus negative control” value [6] is given as “statistically similar to the negative control”, the IC50 [3] is given as 207 µM and the Cmax [4] is given as 1000 to 10000 nM. For the same molecule, the fu [5] was 0.05 (label), the remaining activity at 1000 µM [2] was 26.6% and the inhibition at 1000 µM [2] was at least 50%.

For `COc1c(C)c2c(c(O)c1C/C=C(\C)CCC(=O)OCCN1CCOCC1)C(=O)OC2` [Mycophenolate mofetil], the IC50 [3] is listed as 145 µM, the Cmax [4] is listed as under 900 nM and the fu [5] is listed as 0.03 (label). The remaining activity at 1000 µM [2] was 32.8% and the inhibition at 1000 µM [2] was at least 50%.
